One experiment concerns spring wheat (TRZAS). In words: Postemergence greenhouse trial, % visual injury on spring wheat. It is filed as in vivo, Triticum aestivum. As to conditions: TRZAS, CQC-m 0 g/ha. The method in brief:
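Postemergence greenhouse spray (187 L/ha, 1.5% v/v Agri-dex in water, acetone/DMSO stocks) on plants at second–third true leaf stage, ~23/22 °C, 14 h photoperiod; herbicides in g ae/ha, safener cloquintocet-mexyl in g ai/ha. Visual injury 0–100% versus solvent-blank controls after 20–22 d; Colby's equation gave expected mixture effects.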

A further experiment deals with kochia (KCHSC). The experiment is described as follows: Postemergence greenhouse trial, % visual injury on kochia. It is filed as in vivo, Kochia scoparia. As to conditions: KCHSC, CQC-m 0 g/ha. The method in brief: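 Herbicide rates g ae/ha, safener (cloquintocet-mexyl) rates g ai/ha; spray carrier 1.5% v/v crop oil concentrate, 187 L/ha, 2nd–3rd leaf stage. Rating: visual % injury at 20-22 d.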

The test system of the next experiment is winter rape (BRSNW). The experiment is described as follows: Postemergence greenhouse trial, % visual injury on winter rape. Format: in vivo, Brassica napus. As to conditions: BRSNW, CQC-m 0 g/ha. The method in brief:
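Plants at second or third true leaf stage, greenhouse-grown (14 h photoperiod, ~23/22° C.), sprayed postemergence with compounds alone or with safener cloquintocet-mexyl in 1.5% v/v Agri-dex crop oil at 187 L/ha. Visual injury scored 0–100% versus solvent-blank controls after 20-22 d; expected mixture effects by Colby's equation.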

For a further experiment, the system named is Russian thistle (SASKR). In words: Postemergence greenhouse trial, % visual injury on Russian thistle. Format: in vivo, Salsola kali. The note with it: SASKR, CQC-m 0 g/ha.

Consider 1 molecule from US9763445B2, “Safened herbicidal compositions comprising a pyridine carboxylic acid herbicide” (Dow AgroSciences, LLC, priority 2014, dated 2017).

Turning to `COc1c(C(=O)O)nc(-c2ccc3cc[nH]c3c2F)c(F)c1N` [compound 13], the “% visual injury, Ob” value in the experiment with spring wheat (TRZAS) (compound 4.375 g/ha) is recorded as 40%; with spring wheat (TRZAS) (compound 8.75 g/ha), 53%; in the experiment with spring wheat (TRZAS) (compound 17.5 g/ha), 67%; in the experiment on spring wheat (TRZAS) (compound 35 g/ha), 80%; in the experiment on spring wheat (TRZAS) (compound 70 g/ha), 87%; with kochia (KCHSC) (compound 4.375 g/ha), 55%. The “% visual injury, Ob” value is 84% in the experiment with kochia (KCHSC) (compound 8.75 g/ha); 89% with kochia (KCHSC) (compound 17.5 g/ha); 92% in the experiment with kochia (KCHSC) (compound 35 g/ha); 93% in the experiment on kochia (KCHSC) (compound 70 g/ha); 100% in the experiment with winter rape (BRSNW) (compound 4.375 g/ha); 100% with winter rape (BRSNW) (compound 8.75 g/ha). Also, the “% visual injury, Ob” value is recorded as 100% in the experiment on winter rape (BRSNW) (compound 17.5 g/ha); 100% in the experiment on winter rape (BRSNW) (compound 35 g/ha); 100% in the experiment on winter rape (BRSNW) (compound 70 g/ha); 50% in the experiment on Russian thistle (SASKR) (compound 4.375 g/ha); 65% in the experiment with Russian thistle (SASKR) (compound 8.75 g/ha); 77% with Russian thistle (SASKR) (compound 17.5 g/ha). The “% visual injury, Ob” value in the experiment with Russian thistle (SASKR) (compound 35 g/ha) came to 83%; with Russian thistle (SASKR) (compound 70 g/ha), 91%.
